The text below walks through data of patent US6610702B2, “Ammonium salts of inositol hexaphosphate, and uses thereof” (GMP Oxycell, Inc., priority 2000, dated 2003).

The subject of data set [1] is whole blood. The experiment in a line: P50 of whole blood pre-incubated with effector (Hemox Analyzer). The class given is cell-based. Here is the method:
Whole blood was collected from one subject. The blood was stored in a Vacutainer with Solution A (ACD) and stored at 4-8° C.
Preparation of Effector Stock: Effector stock was prepared at 100-120 mM (Molal solution) using water or Bis-Tris Buffer. Effector characteristics prior to incubation were:
Incubation: Whole blood (75-300 μL) was incubated with 200 μL of effector at 37° C. for 5-10 min. (see Summary of Results below).
(§1) Washes: After incubation of whole blood with/without effector, blood cells were washed four times with Saline buffer or HBS (BSA) by centrifugal pelleting to remove exogenous effector and to evaluate hemolysis. After final centrifugation, pellet was not resuspended.
Blood Oxygen Dissociation Reading: Blood Oxygen Dissociation of samples were determined using a Hemox Analizer Model B (TCS Medical Products Company, New Hope, Pa.). The sample chamger contained:
10-20 μL Pelleted Blood Cells incubated with Effector
All readings were made at 36.7-37.2° C. and at pH 7.28-7.32. The P50s were calculated from the Dissociation Curves compared to same day control P50.

The target of data set [2] is Free Hemoglobin (Homo sapiens, UniProt P68871). As to the kind of experiment: P50 of free hemoglobin in the presence of effector. The class given is biochemical. The note with it: fHb.
Data set [3] is described as follows: 1-octanol/aqueous phase partition coefficients of IHP salts measured by 31P-NMR. The class given is physicochemical. The text has this: Partition coefficients measurements. We synthesized a first series of IHP derivatives, ionically associated to different aliphatic and aromatic amines as well as amino-esters. Taking advantage of the 6 phosphate groups present in the IHP molecule, we measured, by ^31P-NMR, the partition coefficients of IHP salts between a 1-octanol phase and two different aqueous phases: water and human serum. In FIG. 11 are represented the structures of the different amines preassociated to IHP and the corresponding partition coefficients Kow and Kos. These coefficients are measured after equilibration, at a concentration of 30 mM, close to the typical concentration employed for the biological evaluations (the standard concentration used for O2-dissociation curve measurements is 22 mM).
Choice of the aqueous phases. […] To be even closer to physiological conditions, we pushed this investigation further by measuring 1-octanol/human serum partition coefficients Kos. […] Therefore, we only measured Kos's when Kow values were significant. To illustrate this observation we compared the partitions of 2 IHP derivatives, SV75 and SV131, in different aqueous systems: water, artificial serum (for its composition, see the Experimental section) without and with albumin, and human serum.
Human serum was purchased at the “Centre de Transfusion Sanguine de Strasbourg”. Artificial serum was based on blood composition : [Na^+]=140 mM, [Mg^2+]=1 mM, [K^+]=5 mM, [Ca^2+]=1 mM, [Cl^−]=106 mM, [PO4^3−]=1 mM, [SO4^2−]=0.5 mM, [CO3^2−]=30 mM, [Br^−]=0.5 mM, bovine serum albumin (fraction V, >98%) 30 g.l^−1, pH=7.41.
Partition coefficients. […] 1 ml of 1-octanol was then added and each sample was shaken at 36 rpm during 12 hours. The equilibrated biphasic solutions were centrifuged for 2 hours at 3000 rpm. 350 μl of the octanolic phase was first taken off with a syringe and put directly in the NMR tube. 350 μl of the aqueous phase was then taken off. ^31P-NMR spectra were performed on a Bruker AC-300 apparatus. An external standard (triphenylphosphine oxide, 60 mM in d6-DMSO) was placed inside the NMR tubes to allow both the locking process of the apparatus and an accurate integration of IHP peaks. Partition coefficients were determined as the ratio of IHP integrations, relative to the external standard, in the octanol and aqueous phases.

The test system of data set [4] is red blood cells. The experiment in a line: hemolysis of red blood cells on incubation of whole blood with effector. The class given is cell-based. Here is the method: as §1
For data set [5], the target named is stripped hemoglobin (Homo sapiens, UniProt P68871). The note with it: pH 7.4, cited from earlier work.
Data set [6] relates to whole blood. The experiment in a line: P50 shift on whole blood, first library (Hb-O2 dissociation curve). The class given is cell-based. Conditions: 220 mOsM, control IHP sodium form, 37° C. On the procedure: In FIG. 14 the different IHP derivatives have been classified by amine types, the number of cations per IHP molecule as well as the reference number are indicated beside each amine drawings. The P50 shift values have to be compared to the control experiment (underlined), corresponding to a test performed in the same conditions but with IHP, sodium form. P50 values have been measured in Professor Nicolau's laboratory in Boston (bioassay conditions: 75 μl of whole blood was incubated 2 minutes with 300 μl of a 50 mM solution of IHP derivatives. The system was then washed and 20 μl were used for measurement of the Hb-O2 dissociation curve at 37° C.). See also FIGS. 15-17 for tables of P50 values at various osmolarities of whole blood, and free hemoglobin that has been pre-incubated with various ammonium salts of inositol hexaphosphate.

Where [7] appears, read: 0.25 umoles EFF, control P50 16 mmHg, 37° C.
Where [8] appears, read: 1-octanol/water, concentration of 30 mM.

Structures can show the parent of a compound that is named as a salt. Where two headings read alike, the source gives them in different places. A value given as a limit tells only on which side of the number the result lay.

Sequence of Free Hemoglobin (P68871 2-147 limits assumed): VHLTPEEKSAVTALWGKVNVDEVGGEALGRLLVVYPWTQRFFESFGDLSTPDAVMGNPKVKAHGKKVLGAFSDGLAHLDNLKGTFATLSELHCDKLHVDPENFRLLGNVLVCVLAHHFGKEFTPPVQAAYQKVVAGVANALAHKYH
Sequence of Free Hemoglobin (P69905 2-142 partner limits assumed): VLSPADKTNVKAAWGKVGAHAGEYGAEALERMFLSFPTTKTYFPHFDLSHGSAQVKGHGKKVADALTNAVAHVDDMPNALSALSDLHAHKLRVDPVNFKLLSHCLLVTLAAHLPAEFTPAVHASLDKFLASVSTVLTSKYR
Sequence of stripped hemoglobin (P68871 2-147 limits assumed): as the sequence (P68871 2-147 limits assumed) above
Sequence of stripped hemoglobin (P69905 2-142 partner limits assumed): as the sequence (P69905 2-142 partner limits assumed) above

For `C1CCC(NCCN(CCNC2CCCCC2)CCNC2CCCCC2)CC1.C1CCC(NCCN(CCNC2CCCCC2)CCNC2CCCCC2)CC1.C1CCC(NCCN(CCNC2CCCCC2)CCNC2CCCCC2)CC1.O=P(O)(O)O[C@H]1[C@H](OP(=O)(O)O)[C@@H](OP(=O)(O)O)[C@H](OP(=O)(O)O)[C@@H](OP(=O)(O)O)[C@H]1OP(=O)(O)O` [SV102, Inositol hexaphosphate, tris tri-(N-cyclohexyl-2-amino-ethyl)-ammonium salt], the “P50 mmHg EFF:WB” value in data set [1] (effector 82 mOsM, EFF:WB 1:0.375, pH 7.2-7.3, control 41.5) is recorded as 75.0 mmHg; in data set [1] (effector 321 mOsM, EFF:WB 1:1.5, pH 7.2-7.3, control 40.5) it was 39.5 mmHg. In data set [2] (setting [7]), the “P50 mmHg EFF (free hemoglobin)” value is recorded as 41.0 mmHg.
As for `NC1CCCC1.NC1CCCC1.NC1CCCC1.NC1CCCC1.NC1CCCC1.NC1CCCC1.NC1CCCC1.NC1CCCC1.NC1CCCC1.NC1CCCC1.NC1CCCC1.O=P(O)(O)OC1C(OP(=O)(O)O)C(OP(=O)(O)O)C(OP(=O)(O)O)C(OP(=O)(O)O)C1OP(=O)(O)O` (stereo not shown) [SV78, Inositol hexaphosphate, undeca-cyclopentylammonium salt], in data set [3] (setting [8]), the Kow is < 10^−3.
`C1CCC(N2CCCCC2)CC1.C1CCC(N2CCCCC2)CC1.C1CCC(N2CCCCC2)CC1.C1CCC(N2CCCCC2)CC1.C1CCC(N2CCCCC2)CC1.C1CCC(N2CCCCC2)CC1.C1CCC(N2CCCCC2)CC1.C1CCC(N2CCCCC2)CC1.C1CCC(N2CCCCC2)CC1.O=P(O)(O)O[C@H]1[C@H](OP(=O)(O)O)[C@@H](OP(=O)(O)O)[C@H](OP(=O)(O)O)[C@@H](OP(=O)(O)O)[C@H]1OP(=O)(O)O` [SV 97, Inositol hexaphosphate, nona N-cyclohexyl-piperidinium salt]: the “P50 mmHg EFF:WB” value worked out at 49.7 mmHg in data set [1] (effector 111 mOsM, EFF:WB 1:0.375, pH 7.2-7.3, control 41.5) and 40.0 mmHg in data set [1] (effector 343 mOsM, EFF:WB 1:1.5, pH 7.2-7.3, control 40.5). Also, in data set [2] (setting [7]), the “P50 mmHg EFF (free hemoglobin)” value is reported as 46.7 mmHg.
Take `C1CCCC(NCCN(CCNC2CCCCCC2)CCNC2CCCCCC2)CC1.C1CCCC(NCCN(CCNC2CCCCCC2)CCNC2CCCCCC2)CC1.C1CCCC(NCCN(CCNC2CCCCCC2)CCNC2CCCCCC2)CC1.O=P(O)(O)O[C@H]1[C@H](OP(=O)(O)O)[C@@H](OP(=O)(O)O)[C@H](OP(=O)(O)O)[C@@H](OP(=O)(O)O)[C@H]1OP(=O)(O)O` [SV137, Inositol hexaphosphate, tris tri-(N-cycloheptyl-2-amino-ethyl)-ammonium salt]: the Kos in data set [3] (1-octanol/human serum, concentration of 30 mM) is 0.64. Also, the Kow in data set [3] (setting [8]) amounted to 2.70. The “P50 mmHg EFF:WB” value in data set [1] (effector 268 mOsM, EFF:WB 1:0.375, pH 7.2-7.3, control 29.5) came to 32.0 mmHg.
Regarding `CCC(C)C(N)C(=O)OC(C)(C)C.CCC(C)C(N)C(=O)OC(C)(C)C.CCC(C)C(N)C(=O)OC(C)(C)C.CCC(C)C(N)C(=O)OC(C)(C)C.CCC(C)C(N)C(=O)OC(C)(C)C.CCC(C)C(N)C(=O)OC(C)(C)C.CCC(C)C(N)C(=O)OC(C)(C)C.CCC(C)C(N)C(=O)OC(C)(C)C.O=P(O)(O)OC1C(OP(=O)(O)O)C(OP(=O)(O)O)C(OP(=O)(O)O)C(OP(=O)(O)O)C1OP(=O)(O)O` (stereo not shown) [SV57, Inositol hexaphosphate, octa isoleucine-tbuthyl-ester], the “hemolysis of red blood cells” value in data set [4] (first library bioassay on whole blood) is reported as “fast hemolysis”.
For the compound “Inositol hexaphosphate, penta cyclohexyl-(1,3-bismethylammonium) salt [SV 94]”, in data set [2] (setting [7]), the “P50 mmHg EFF (free hemoglobin)” value is reported as 41.0 mmHg.
Consider `NC1CCCCCCC1` [cyclooctylammoniums], for which, in data set [3] (constant IHP concentration 22 mM, human serum/octanol, IHP sodium salt in serum, ammonium hydrochloride in organic phase), the “equivalents of cyclooctylammoniums required to reach a Kos value equal to 1” value was 8 equivalents.
Take `NC1CCCCCC1` [SV75, Inositol hexaphosphate, nona-cycloheptylammonium salt]: the “Koas (artificial serum with albumin)” value in data set [3] (1-octanol/artificial serum with albumin, at 18 mM) worked out at 0.041. The “Koa (artificial serum without albumin)” value in data set [3] (1-octanol/artificial serum without albumin, at 18 mM) is 0.088. Also, the “Kos (human serum)” value in data set [3] (1-octanol/human serum, at 18 mM) amounted to 0.031. Besides, the “Kow (water)” value in data set [3] (1-octanol/water, at 18 mM) was 0.411.
For `O=C(O)C(COP(=O)(O)O)OP(=O)(O)O` (stereo not shown) [2,3-Diphosphoglycerate], the “half-saturation pressure P(O2) (½) of stripped hemoglobin” value in data set [5] (25 C., stripped hemoglobin alone 4.3) was 12.0 mm Hg; in data set [5] (37 C., stripped hemoglobin alone 9.3), 23.7 mm Hg.
Regarding `NC1CCCCC1.NC1CCCCC1.NC1CCCCC1.NC1CCCCC1.NC1CCCCC1.NC1CCCCC1.NC1CCCCC1.NC1CCCCC1.NC1CCCCC1.NC1CCCCC1.NC1CCCCC1.O=P(O)(O)OC1C(OP(=O)(O)O)C(OP(=O)(O)O)C(OP(=O)(O)O)C(OP(=O)(O)O)C1OP(=O)(O)O` (stereo not shown) [SV81, Inositol hexaphosphate, undeca-cyclohexylammonium salt], in data set [6], the “shift of the P50 value (compared to the control experiment)” value is reported as 50%.
For “Inositol hexaphosphate, octa menthyl-1,8-diammonium salt [SV 89]”, in data set [2] (setting [7]), the “P50 mmHg EFF (free hemoglobin)” value stood at 41.7 mmHg.
On to `NC1CCCCC1N.NC1CCCCC1N.NC1CCCCC1N.NC1CCCCC1N.NC1CCCCC1N.O=P(O)(O)O[C@H]1[C@H](OP(=O)(O)O)[C@@H](OP(=O)(O)O)[C@H](OP(=O)(O)O)[C@@H](OP(=O)(O)O)[C@H]1OP(=O)(O)O` [SV 92, Inositol hexaphosphate, penta (±)-(trans)-1,2-cyclohexyldiammonium salt], for which the “P50 mmHg EFF:WB” value in data set [1] (effector 84 mOsM, EFF:WB 1:0.375, pH 7.2-7.3, control 41.4) was 58.5 mmHg; in data set [1] (effector 336 mOsM, EFF:WB 1:1.5, pH 7.2-7.3, control 40.5) it was 38.7 mmHg. For the same compound, in data set [2] (setting [7]), the “P50 mmHg EFF (free hemoglobin)” value was 45.0 mmHg.
As to `NC1CCCCC1.NC1CCCCC1.NC1CCCCC1.NC1CCCCC1.NC1CCCCC1.NC1CCCCC1.NC1CCCCC1.NC1CCCCC1.NC1CCCCC1.O=P([O-])([O-])OC1C(OP(=O)([O-])O)C(OP(=O)(O)O)C(OP(=O)(O)O)C(OP(=O)(O)O)C1OP(=O)(O)O.[Na+].[Na+].[Na+]` (stereo not shown) [ICP6, nona cyclohexylammonium tri sodium inositol hexaphosphate], the “P50 EFF:WB” value in data set [1] (EFF 30 mM, EFF:WB 22 mM, 220 mOsM, pH 7.23, ratio 1:0.375, control WB 27.5, 37 C.) turned out to be 39 mmHg.
`C1CCCC(NCCCN2CCN(CCCNC3CCCCCCC3)CC2)CCC1.C1CCCC(NCCCN2CCN(CCCNC3CCCCCCC3)CC2)CCC1.C1CCCC(NCCCN2CCN(CCCNC3CCCCCCC3)CC2)CCC1.O=P(O)(O)O[C@H]1[C@H](OP(=O)(O)O)[C@@H](OP(=O)(O)O)[C@H](OP(=O)(O)O)[C@@H](OP(=O)(O)O)[C@H]1OP(=O)(O)O` [SV141, Inositol hexaphosphate, tri N,N′-di-(3-(N-cyclooctyl-amino)-propyl)-piperazinium salt]: the “P50 mmHg EFF:WB” value in data set [1] (effector 221 mOsM, EFF:WB 1:1.5, pH 7.1-7.2, control 25) was determined as 25.0 mmHg. In addition, the “P50 mmHg EFF (free hemoglobin)” value in data set [2] (ratio 1:1 (2.5 mM:2.5 mM), pH 7.1-7.2, control P50 10.5 mmHg) worked out at 22.0 mmHg. Besides, the “lysis of whole blood incubated with effector” value in data set [4] (WB, EFF:WB 1:0.375, no sufficient RBC pellet) is given as “Lyses”.
